Format in all cases: in vivo, Glycine max
The test system of assay [1] is ROUNDUP READY soybeans (GLXMA). The assay is described as follows: Field evaluation with various herbicides, 46 days after treatment. Conditions: for % Crop Control: 46 Days After Treatment. From the text:
The average percent visual control of ROUNDUP READY® soybeans (GLXMA) 46 days after treatment with various herbicides with standard formulation in comparison with compound of Formula (IV) at specified rates are provided in Table 6 below. The data was the result of conducting factorial replicated field trials (4 trials) by applying the compositions at a spray pressure of 300 kPa and a spray volume of 200 L/ha. The treated plots and control plots were visually rated blind at the specified dates after application. Ratings were based on a scale of 0-100%, as discussed above, wherein 0% indicates complete growth of the undesired vegetation and 100% indicates complete prevention/eradication of the undesired vegetation.

Assay [2] relates to ROUNDUP READY soybeans (GLXMA). Briefly: Field evaluation with various herbicides, 30 days after treatment. Conditions: for % Crop Control: 30 Days After Treatment. From the text: The data was the result of conducting factorial replicated field trials (3 trials) by applying the compositions at a spray pressure of 300 kPa and a spray volume of 200 L/ha. The treated plots and control plots were visually rated blind at the specified dates after application. Ratings were based on a scale of 0-100%, as discussed above, wherein 0% indicates complete growth of the undesired vegetation and 100% indicates complete prevention/eradication of the undesired vegetation.

In assay [3] the test system is Maverick GLXMA (conventional soybean). The assay is described as follows: Greenhouse evaluation of broadleaf volunteer crop control, Maverick soybean. The note with it: greenhouse, 2 to 3 leaf stage, after 21 days, 0 no injury, 100 complete kill. As for the experimental part:
(§1) Test plants were grown in METRO-MIX® 360 (SunGro Horticulture, Bellevue, Wash.) in 132.7 square centimeters (cm^2) plastic pots for 7-21 days in a greenhouse with an approximate 15 hour (h) photoperiod which was maintained at about 23-29° C. during the day and 22-28° C. during the night. Plants were grown to the 2 to 3 leaf stage prior to applications. Both conventional soybean crops varieties, Maverick and Resnick, and herbicide resistant (HT) varieties AAD12, AAD1, and ROUNDUP® ready soybean crops were treated.
(§2) A weighed amount, determined by the highest rate to be tested, of each test compound was placed in a 25 milliliter (mL) glass vial and was dissolved in 4 mL of a 97:3 v/v (volume/volume) mixture of acetone and dimethyl sulfoxide (DMSO), which will be referred to as General Purpose Solvent (GPS), to obtain concentrated stock solutions. […] The concentrated stock solutions obtained were diluted with 20 mL of an aqueous mixture containing water, GPS, isopropyl alcohol, ATPLUS® 411F crop oil concentrate, and TRITON® X-155 surfactant in a 46:42:12:1.0:0.02 v/v ratio to obtain spray solutions containing the highest application rates. Additional application rates were obtained by serial dilution of 12 mL of the high rate solution into a solution containing 2 mL of 97:3 v/v (volume/volume) mixture of acetone and dimethyl sulfoxide (DMSO) and 10 mL of an aqueous mixture containing water, GPS, isopropyl alcohol, ATPLUS® 411F crop oil concentrate, and TRITON® X-155 surfactant in a 46:42:12:1.0:0.02 v/v ratio to obtain 1/2X, 1/4X, 1/8X and 1/16X rates of the high rate (X). Compound requirements are based upon a 12 mL application volume at a rate of 187 L/ha. Formulated compounds were applied to the plant material with an overhead Mandel track sprayer equipped with 8002E nozzles calibrated to deliver 187 L/ha over an application area of 0.503 square meters (m^2) at a spray height of 18 inches (43 cm) above the average plant canopy height. Control plants were sprayed in the same manner with the solvent blank. The treated plants and control plants were placed in a greenhouse as described above and watered by sub-irrigation to prevent wash-off of the test compounds. After 21 days, the condition of the test plants as compared with that of the control plants was determined visually and scored on a scale of 0 to 100 percent where 0 corresponds to no injury and 100 corresponds to complete kill, and results are listed in Table 1 along with active ingredients and their respective formulations. Each score in Table 1 represents an average obtained from results of three representative experiments.
(§3) Additional formulations with different 6-arylpicolinates were tested in the greenhouse on Maverick and RoundUp-ready soybean crops using the procedure described above. Each score in Table 2 represents an average obtained from results of three representative experiments.

For assay [4], the system named is RoundUp Ready GLXMA (HT variety soybean). The assay is described as follows: Greenhouse evaluation of broadleaf volunteer crop control, RoundUp ready soybean. Conditions: greenhouse, 2 to 3 leaf stage, after 21 days, 0 no injury, 100 complete kill; for pest or weed control at 1.1 g/ha: 1.1 g ae/ha. The method, then: as §1, §2, §3
Where [5] appears, read: Glycine max, 504 h, read-out: Average Percent Crop Control after Treatment, RoundUp Ready GLXMA.

Regarding `COc1c(Cl)ccc(-c2cc(N)c(Cl)c(C(=O)O)n2)c1F` [Formula (IV)], in assay [1] (17 g ai/Ha), the “% Crop Control” value is given as 93%. Also, the “herbicidal activity in genetically engineered crops as compared to other commercially known herbicides” value in assay [1] (RoundUp Ready soybeans) is listed as “comparable or superior”.

For the compound `CCNc1nc(Cl)nc(NC(C)C)n1` [Atrazine], the figures for the “% Crop Control” value in assay [2] (1500 g ai/Ha + 1% J'Oil) and in assay [2] (1500 g ai/Ha) were 86.7% and 75%, respectively.

For `COc1cnc(OC)n2nc(NS(=O)(=O)c3c(OCC(F)F)cccc3C(F)(F)F)nc12` [Penoxsulam], in assay [2] (18 g ai/Ha), the “% Crop Control” value was 87.3%.

As to `COc1ncc(F)c2nc(S(=O)(=O)Nc3c(F)cccc3F)nn12` [florasulam], the “% Crop Control” value in assay [2] (5 g ai/Ha + 1% J'Oil) is reported as 63.3%.

With `COc1nc(C)nc(NC(=O)NS(=O)(=O)c2cc(I)ccc2C(=O)O)n1` [Iodosulfuron], in assay [1] (3.5 g ai/Ha), the “% Crop Control” value is reported as 90%.

Consider `COc1cc(OC)n2nc(NS(=O)(=O)c3c(C(F)(F)F)ccnc3OC)nc2n1` [Pyroxsulam], for which the “% Crop Control” value in assay [1] (18 g ai/Ha) stood at 98.3%.

With `COc1nc(C)nc(=NC(=O)NS(=O)(=O)c2ccccc2C(=O)O)[nH]1` [Metsulfuron], the “% Crop Control” value in assay [2] (6 g ai/Ha + 1% J'Oil) is given as 96%; in assay [2] (6 g ai/Ha) it was 89.3%; in assay [1] (6 g ai/Ha), 98.3%.

Regarding `CC(O)CN(CC(C)O)CC(C)O.Nc1cc(Cl)nc(C(=O)O)c1Cl` (centres unmarked) [Aminopyralid TIPA], the “% Crop Control” value in assay [2] (1.25 g ai/Ha) is given as 60%.

For the compound `C#CCN1C(=O)COc2cc(F)c(N3C(=O)C4=C(CCCC4)C3=O)cc21` [Flumioxazin], in assay [1] (25 g ai/Ha), the “% Crop Control” value worked out at 0%.

For the compound `CNC.O=C(O)COc1ccc(Cl)cc1Cl` [2,4-D-dma], the “% Crop Control” value in assay [1] (1300 g ai/Ha) is given as 97.3%.

With `Nc1c(Cl)c(F)nc(OCC(=O)O)c1Cl` [Fluroxypyr], the “% Crop Control” value in assay [1] (200 g ai/Ha) stood at 100%.

Turning to `C[n+]1ccc(-c2cc[n+](C)cc2)cc1` [Paraquat], the “% Crop Control” value in assay [2] (300 g ai/Ha) is recorded as 61.7%; in assay [1] (300 g ai/Ha), 85%.

Turning to `COc1c(Cl)ccc(-c2nc(C(=O)O)c(Cl)c(N)c2F)c1F` [drawing 13], the “Average Percent Crop Control after Treatment, Maverick GLXMA” value in assay [3] (1.1 g ae/ha), in assay [3] (2.2 g ae/ha), in assay [3] (4.4 g ae/ha), in assay [3] (8.75 g ae/ha) and in assay [3] (17.5 g ae/ha) was 100% throughout. Moreover, the “Average Percent Crop Control after Treatment, RoundUp Ready GLXMA” value in assay [4] (2.2 g ae/ha), in assay [4] (4.4 g ae/ha), in assay [4] (8.75 g ae/ha) and in assay [4] (17.5 g ae/ha) was 100% each time. For the same compound, the pest or weed control at 1.1 g/ha in assay [4] (setting [5]) stood at 100%.

In the case of `O=C(O)c1nc(Cl)ccc1Cl` [Clopyralid], in assay [1] (54 g ai/Ha), the “% Crop Control” value turned out to be 93.8%.

As for `CCOc1cc(Oc2ccc(C(F)(F)F)cc2Cl)ccc1[N+](=O)[O-]` [Oxyfluorfen], the “% Crop Control” value in assay [2] (72 g ai/Ha) came out at 16.7%.

Consider `Nc1cc(-c2ccc(Cl)cc2F)nc(C(=O)O)c1Cl`, for which the pest or weed control at 1.1 g/ha in assay [3] (Glycine max, 504 h, 1.1 g ae/ha, read-out: Average Percent Crop Control after Treatment, Maverick GLXMA) stood at 100%; in assay [4] (setting [5]), 100%. The pest or weed control at 2.2 g/ha in assay [3] (Glycine max, 504 h, 2.2 g ae/ha, read-out: Average Percent Crop Control after Treatment, Maverick GLXMA) amounted to 100%; in assay [4] (Glycine max, 504 h, 2.2 g ae/ha, read-out: Average Percent Crop Control after Treatment, RoundUp Ready GLXMA) it was 100%. For the same compound, the pest or weed control at 4.4 g/ha in assay [3] (Glycine max, 504 h, 4.4 g ae/ha, read-out: Average Percent Crop Control after Treatment, Maverick GLXMA) worked out at 100%; in assay [4] (Glycine max, 504 h, 4.4 g ae/ha, read-out: Average Percent Crop Control after Treatment, RoundUp Ready GLXMA) it was 100%. For the same compound, the pest or weed control at 8.75 g/ha in assay [3] (Glycine max, 504 h, 8.75 g ae/ha, read-out: Average Percent Crop Control after Treatment, Maverick GLXMA) was found to be 100%; in assay [4] (Glycine max, 504 h, 8.75 g ae/ha, read-out: Average Percent Crop Control after Treatment, RoundUp Ready GLXMA), 100%. In addition, the pest or weed control at 17.5 g/ha in assay [3] (Glycine max, 504 h, 17.5 g ae/ha, read-out: Average Percent Crop Control after Treatment, Maverick GLXMA) was 100%; in assay [4] (Glycine max, 504 h, 17.5 g ae/ha, read-out: Average Percent Crop Control after Treatment, RoundUp Ready GLXMA) it was 100%.

As for `COc1c(Cl)ccc(-c2nc(C(=O)O)c(Cl)c(N)c2F)c1F` [Formula (III)], in assay [2] (18 g ai/Ha), the “% Crop Control” value was found to be 100%. Moreover, the “herbicidal activity in genetically engineered crops as compared to other commercially known herbicides” value in assay [2] (RoundUp Ready soybeans) is on record as “comparable or superior”.

Source of the values: patent US10154667B2, “Broadleaf crop control with 6-arylpicoline carboxylic acids, 2-arylpyrimidine carboxylic acids, or salts or esters thereof” (Dow AgroSciences LLC, priority 2013, dated 2018).
